Calls of active or inactive are those of the source. No cut-off for these calls is given here.
Assays:
Bombus terrestris [1] = assay: Toxicity against worker Bombus terrestris (bumblebee) assessed as mortality at 55 mg a.i./l, po administered through pollen for 11 weeks measured everyday for 3 days followed by once a week for 11 weeks; assay type: functional, organism-based
Bombus terrestris [2] = assay: Toxicity against worker Bombus terrestris (bumblebee) assessed as mortality at 55 mg a.i./l, po administered through sugar water measured after 9 to 11 weeks; assay type: functional, organism-based
Bombus terrestris [3] = assay: Toxicity against worker Bombus terrestris (bumblebee) assessed as mortality at 55 mg a.i./l, po administered through sugar water for 11 weeks measured everyday for 3 days followed by once a week for 11 weeks; assay type: functional
Bombus terrestris [4] = assay: Contact toxicity against worker Bombus terrestris (bumblebee) assessed as mortality at 55 mg a.i./l applied on the dorsal thorax for 11 weeks measured everyday for 3 days followed by once a week for 11 weeks; assay type: functional
Bombus terrestris [5] = assay: Toxicity against po dosed worker Bombus terrestris (bumblebee) administered through sugar water for 11 weeks measured everyday for 3 days followed by once a week for 11 weeks; assay type: functional
Bombus terrestris [6] = assay: Toxicity against worker Bombus terrestris (bumblebee) assessed as reduction in reproduction at 55 mg a.i./l, po administered through pollen for 11 weeks measured once a week for 11 weeks; assay type: functional; set-up: scale not given: the % may be the effect or the level left
Bombus terrestris [7] = assay: Toxicity against worker Bombus terrestris (bumblebee) assessed as reduction in reproduction at 55 mg a.i./l, po administered through sugar water for 11 weeks measured once a week for 11 weeks relative to control; assay type: functional, organism-based
Bombus terrestris [8] = assay: Contact toxicity against worker Bombus terrestris (bumblebee) assessed as reduction in reproduction at 55 mg a.i./l applied on the dorsal thorax for 11 weeks measured once a week for 11 weeks relative to control; assay type: functional, organism-based
Bombus terrestris [9] = assay: Contact toxicity against worker Bombus terrestris (bumblebee) assessed as mortality at 30 mg a.i./l applied on the dorsal thorax measured up to 1 week; assay type: functional, organism-based
Bombus terrestris [10] = assay: Toxicity against worker Bombus terrestris (bumblebee) assessed as mortality at 30 mg a.i./l, po administered through pollen for 11 weeks measured everyday for 3 days followed by once a week for 11 weeks; assay type: functional
Bombus terrestris [11] = assay: Toxicity against worker Bombus terrestris (bumblebee) assessed as mortality at 30 mg a.i./l, po administered through sugar water for 11 weeks measured everyday for 3 days followed by once a week for 11 weeks; assay type: functional
Bombus terrestris [12] = assay: Contact toxicity against worker Bombus terrestris (bumblebee) assessed as mortality at 30 mg a.i./l applied on the dorsal thorax for 11 weeks measured everyday for 3 days followed by once a week for 11 weeks; assay type: functional
Bombus terrestris [13] = assay: Toxicity against worker Bombus terrestris (bumblebee) assessed as mortality at 30 mg a.i./l, po administered through pollen measured after 7 weeks; assay type: functional; conditions: 1176 h
Bombus terrestris [14] = assay: Toxicity against worker Bombus terrestris (bumblebee) assessed as reduction in reproduction at 30 mg a.i./l, po administered through pollen for 11 weeks measured once a week for 11 weeks; assay type: functional; set-up: scale not given: the % may be the effect or the level left
Bombus terrestris [15] = assay: Contact toxicity against worker Bombus terrestris (bumblebee) assessed as reduction in reproduction at 30 mg a.i./l applied on the dorsal thorax for 11 weeks measured once a week for 11 weeks relative to control; assay type: functional, organism-based
Bombus terrestris [16] = assay: Toxicity against worker Bombus terrestris (bumblebee) assessed as mortality at 18 mg a.i./l, po administered through sugar water measured after 11 weeks; assay type: functional; conditions: 1848 h
Bombus terrestris [17] = assay: Toxicity against worker Bombus terrestris (bumblebee) assessed as mortality at 18 mg a.i./l, po administered through sugar water measured after 7 weeks; assay type: functional; conditions: 1176 h
Bombus terrestris [18] = assay: Toxicity against worker Bombus terrestris (bumblebee) assessed as mortality at 18 mg a.i./l, po administered through sugar water measured after 1 week; assay type: functional; conditions: 168 h
Bombus terrestris [19] = assay: Contact toxicity against worker Bombus terrestris (bumblebee) assessed as mortality at 18 mg a.i./l applied on the dorsal thorax measured after 3 to 4 weeks; assay type: functional, organism-based
Bombus terrestris [20] = assay: Toxicity against worker Bombus terrestris (bumblebee) assessed as mortality at 18 mg a.i./l, po administered through pollen for 11 weeks measured everyday for 3 days followed by once a week for 11 weeks; assay type: functional
Bombus terrestris [21] = assay: Toxicity against worker Bombus terrestris (bumblebee) assessed as mortality at 18 mg a.i./l, po administered through sugar water measured after 9 weeks; assay type: functional; conditions: 1512 h
Bombus terrestris [22] = assay: Toxicity against worker Bombus terrestris (bumblebee) assessed as mortality at 18 mg a.i./l, po administered through sugar water for 11 weeks measured everyday for 3 days followed by once a week for 11 weeks; assay type: functional
Bombus terrestris [23] = assay: Contact toxicity against worker Bombus terrestris (bumblebee) assessed as mortality at 18 mg a.i./l applied on the dorsal thorax for 11 weeks measured everyday for 3 days followed by once a week for 11 weeks; assay type: functional
Aphidius colemani = assay: Contact toxicity against Aphidius colemani assessed as mortality at 8.5 mg a.i./l; assay type: functional
Apis mellifera [24] = assay: Toxicity against po dosed Apis mellifera (honey bee) assessed per bee after 24 hr; assay type: functional
Apis mellifera [25] = assay: Contact toxicity against Apis mellifera (honey bee) assessed per bee after 24 hr; assay type: functional
Bombus terrestris [26] = assay: Toxicity against worker Bombus terrestris (bumblebee) assessed as mortality at 18 mg a.i./l, po administered through pollen measured after 7 weeks; assay type: functional; conditions: 1176 h
Bombus terrestris [27] = assay: Toxicity against worker Bombus terrestris (bumblebee) assessed as mortality at 18 mg a.i./l, po administered through pollen measured after 3 weeks; assay type: functional; conditions: 504 h
Bombus terrestris [28] = assay: Toxicity against worker Bombus terrestris (bumblebee) assessed as reduction in reproduction at 18 mg a.i./l, po administered through pollen for 11 weeks measured once a week for 11 weeks; assay type: functional, organism-based
Bombus terrestris [29] = assay: Contact toxicity against worker Bombus terrestris (bumblebee) assessed as reduction in reproduction at 18 mg a.i./l applied on the dorsal thorax for 11 weeks measured once a week for 11 weeks relative to control; assay type: functional, organism-based
Bombus terrestris [30] = assay: Toxicity against worker Bombus terrestris (bumblebee) assessed as mortality at 240 mg a.i./l, po administered through pollen for 11 weeks measured everyday for 3 days followed by once a week for 11 weeks; assay type: functional
Bombus terrestris [31] = assay: Toxicity against worker Bombus terrestris (bumblebee) assessed as mortality at 240 mg a.i./l, po administered through sugar water measured up to 1 week; assay type: functional, organism-based
Bombus terrestris [32] = assay: Toxicity against worker Bombus terrestris (bumblebee) assessed as mortality at 240 mg a.i./l, po administered through sugar water for 11 weeks measured everyday for 3 days followed by once a week for 11 weeks; assay type: functional
Bombus terrestris [33] = assay: Contact toxicity against worker Bombus terrestris (bumblebee) assessed as mortality at 240 mg a.i./l applied on the dorsal thorax for 11 weeks measured everyday for 3 days followed by once a week for 11 weeks; assay type: functional
Apis mellifera [34] = assay: Toxicity against Apis mellifera (honey bee) assessed per bee; assay type: functional
Bombus terrestris [35] = assay: Contact toxicity against Bombus terrestris (bumblebee) assessed per bee; assay type: functional
Apis mellifera [36] = assay: Contact toxicity against Apis mellifera (honey bee) assessed per bee; assay type: functional
Bombus terrestris [37] = assay: Toxicity against worker Bombus terrestris (bumblebee) assessed as reduction in reproduction at 240 mg a.i./l, po administered through sugar water for 11 weeks measured once a week for 11 weeks relative to control; assay type: functional, organism-based
Bombus terrestris [38] = assay: Toxicity against worker Bombus terrestris (bumblebee) assessed as mortality at 240 mg a.i./l, po administered through pollen measured after 8 weeks; assay type: functional; conditions: 1344 h
Bombus terrestris [39] = assay: Toxicity against worker Bombus terrestris (bumblebee) assessed as reduction in reproduction at 240 mg a.i./l, po administered through pollen for 11 weeks measured once a week for 11 weeks; assay type: functional, organism-based
Bombus terrestris [40] = assay: Contact toxicity against worker Bombus terrestris (bumblebee) assessed as reduction in reproduction at 240 mg a.i./l applied on the dorsal thorax for 11 weeks measured once a week for 11 weeks relative to control; assay type: functional, organism-based
Bombus terrestris [41] = assay: Toxicity against worker Bombus terrestris (bumblebee) assessed as mortality at 240 mg a.i./l, po administered through pollen measured after 5 weeks; assay type: functional; conditions: 840 h
Bombus terrestris [42] = assay: Toxicity against worker Bombus terrestris (bumblebee) assessed as mortality at 3 mg a.i./l, po administered through sugar water for 11 weeks measured everyday for 3 days followed by once a week for 11 weeks; assay type: functional
Bombus terrestris [43] = assay: Toxicity against worker Bombus terrestris (bumblebee) assessed as mortality at 3 mg a.i./l, po administered through pollen for 11 weeks measured everyday for 3 days followed by once a week for 11 weeks; assay type: functional
Bombus terrestris [44] = assay: Contact toxicity against worker Bombus terrestris (bumblebee) assessed as mortality at 3 mg a.i./l applied on the dorsal thorax for 11 weeks measured everyday for 3 days followed by once a week for 11 weeks; assay type: functional
Bombus terrestris [45] = assay: Toxicity against worker Bombus terrestris (bumblebee) assessed as reduction in reproduction at 3 mg a.i./l, po administered through pollen for 11 weeks measured once a week for 11 weeks; assay type: functional; set-up: scale not given: the % may be the effect or the level left
Bombus terrestris [46] = assay: Toxicity against worker Bombus terrestris (bumblebee) assessed as reduction in reproduction at 3 mg a.i./l, po administered through sugar water for 11 weeks measured once a week for 11 weeks relative to control; assay type: functional, organism-based
Bombus terrestris [47] = assay: Contact toxicity against worker Bombus terrestris (bumblebee) assessed as reduction in reproduction at 3 mg a.i./l applied on the dorsal thorax for 11 weeks measured once a week for 11 weeks relative to control; assay type: functional, organism-based

## CCOc1cc(C(C)(C)C)ccc1C1COC(c2c(F)cccc2F)=N1 (stereo not drawn) [ETOXAZOLE]
Bombus terrestris [1]
  Activity: inactive
Bombus terrestris [2]
  Activity: Active
Bombus terrestris [3]
  mortality at 55 µg/mL: 95%
Bombus terrestris [4]
  mortality at 55 µg/mL: < 25%
Bombus terrestris [5]
  LC50: 4.4 mgAi/L
  NOAEL: 0.55 mgAi/L
Bombus terrestris [6]
  Activity: 25%
Bombus terrestris [7]
  Activity: Active
Bombus terrestris [8]
  Activity: Active

## Cc1c(COC(=O)[C@@H]2[C@H](/C=C(\Cl)C(F)(F)F)C2(C)C)cccc1-c1ccccc1 (relative stereo) [BIFENTHRIN]
Bombus terrestris [9]
  Activity: Active
Bombus terrestris [10]
  mortality at 30 µg/mL: 90%
Bombus terrestris [11]
  mortality at 30 µg/mL: 50%
Bombus terrestris [12]
  mortality at 30 µg/mL: 100%
Bombus terrestris [5]
  LC50: 0.36 mgAi/L
  NOAEL: 0.03 mgAi/L
Bombus terrestris [13]
  mortality at 30 µg/mL: 100%
Bombus terrestris [14]
  Activity: 50%
Bombus terrestris [15]
  Activity: Active

## CC[C@H](C)[C@H]1O[C@]2(C=C[C@@H]1C)C[C@@H]1C[C@@H](C/C=C(\C)[C@@H](O[C@H]3C[C@H](OC)[C@@H](O[C@H]4C[C@H](OC)[C@@H](O)[C@H](C)O4)[C@H](C)O3)[C@@H](C)/C=C/C=C3\CO[C@@H]4[C@H](O)C(C)=C[C@@H](C(=O)O1)[C@]34O)O2.CO[C@H]1C[C@H](O[C@H]2[C@H](C)O[C@@H](O[C@@H]3/C(C)=C/C[C@@H]4C[C@@H](C[C@]5(C=C[C@H](C)[C@@H](C(C)C)O5)O4)OC(=O)[C@@H]4C=C(C)[C@@H](O)[C@H]5OC/C(=C\C=C\[C@@H]3C)[C@]54O)C[C@@H]2OC)O[C@@H](C)[C@@H]1O [ABAMECTIN]
Bombus terrestris [16]
  mortality at 18 µg/mL: 100%
Bombus terrestris [17]
  mortality at 18 µg/mL: 40%
Bombus terrestris [18]
  mortality at 18 µg/mL: 20%
Bombus terrestris [19]
  Activity: Active
Bombus terrestris [20]
  mortality at 18 µg/mL: 90%
Bombus terrestris [21]
  mortality at 18 µg/mL: 80%
Bombus terrestris [22]
  mortality at 18 µg/mL: 95%
Bombus terrestris [23]
  mortality at 18 µg/mL: 100%
Bombus terrestris [5]
  LC50: 1.17 mgAi/L
  NOAEL: 0.18 mgAi/L
Aphidius colemani
  mortality at 8.5 µg/mL: 100%
Apis mellifera [24]
  LD50: 0.009 µg
Apis mellifera [25]
  LD50: 0.002 µg
Bombus terrestris [26]
  mortality at 18 µg/mL: 60%
Bombus terrestris [27]
  mortality at 18 µg/mL: 40%
Bombus terrestris [28]
  Activity: Active
Bombus terrestris [29]
  Activity: Active

## CCOCn1c(-c2ccc(Cl)cc2)c(C#N)c(Br)c1C(F)(F)F [CHLORFENAPYR]
Bombus terrestris [30]
  mortality at 240 µg/mL: 90%
Bombus terrestris [31]
  Activity: Active
Bombus terrestris [32]
  mortality at 240 µg/mL: 95%
Bombus terrestris [33]
  mortality at 240 µg/mL: < 25%
Apis mellifera [34]
  LD50: 0.2 µg
Bombus terrestris [35]
  LD50: >100 µg
Apis mellifera [36]
  LD50: <1 µg
Bombus terrestris [37]
  Activity: Active
Bombus terrestris [38]
  mortality at 240 µg/mL: 90%
Bombus terrestris [39]
  Activity: Active
Bombus terrestris [40]
  Activity: inactive
Bombus terrestris [41]
  mortality at 240 µg/mL: 50%

## C[C@@H]1[C@@H](c2ccc(Cl)cc2)SC(=O)N1C(=O)NC1CCCCC1 (relative stereo) [HEXYTHIAZOX]
Bombus terrestris [42]
  mortality at 3 µg/mL: < 25%
Bombus terrestris [43]
  mortality at 3 µg/mL: 90%
Bombus terrestris [44]
  mortality at 3 µg/mL: < 25%
Bombus terrestris [45]
  Activity: 50%
Bombus terrestris [46]
  Activity: Active
Bombus terrestris [47]
  Activity: inactive
